Measurements: ChEMBL document CHEMBL4038262, “Design, synthesis and antibacterial activities of thiouracil derivatives containing acyl thiourea as SecA inhibitors” (Bioorg Med Chem Lett, 2017)
≈ marks a conversion by molar mass, not a printed value.

How the values were obtained:
Staphylococcus aureus [1] = assay: Antibacterial activity against Staphylococcus aureus at 25 ug/ml after 24 hrs by plate colony counting method relative to control; assay type: functional
[2] = test system: Bacillus amyloliquefaciens; assay: Antibacterial activity against Bacillus amyloliquefaciens at 25 ug/ml after 24 hrs by plate colony counting method relative to control; assay type: functional
Bacillus subtilis [3] = assay: Antibacterial activity against Bacillus subtilis at 25 ug/ml after 24 hrs by plate colony counting method relative to control; assay type: functional
[4] = Inhibition of Escherichia coli BL21.19 SecA after 30 mins by malachite green dye-based assay
Escherichia coli [5] = assay: Inhibition of Escherichia coli BL21.19 SecA at 40 ug/ml after 30 mins by malachite green dye-based assay relative to control
Bacillus subtilis [6] = assay: Antibacterial activity against Bacillus subtilis after 24 hrs by plate colony counting method; assay type: functional
[7] = test system: Bacillus amyloliquefaciens; assay: Antibacterial activity against Bacillus amyloliquefaciens after 24 hrs by plate colony counting method; assay type: functional
Staphylococcus aureus [8] = assay: Antibacterial activity against Staphylococcus aureus after 24 hrs by plate colony counting method; assay type: functional
Escherichia coli [9] = assay: Inhibition of Escherichia coli BL21.19 SecA at 20 ug/ml after 30 mins by malachite green dye-based assay relative to control

Row | SMILES | inhibition at 25 µg/mL (Staphylococcus aureus [1]) [%] | inhibition at 25 µg/mL [2] [%] | inhibition at 25 µg/mL (Bacillus subtilis [3]) [%] | IC50 [4] [µg/mL] | inhibition (Escherichia coli [5]) [%] | MIC (Bacillus subtilis [6]) [µg/mL] | MIC [7] [µg/mL] | MIC (Staphylococcus aureus [8]) [µg/mL] | inhibition (Escherichia coli [9]) [%]
1 | N#Cc1c(-c2ccccc2)nc(SCc2ccc(C(=O)NC(=S)Nc3ccccc3)cc2)[nH]c1=O | 67 | 70 | 63 | – | – | – | – | – | –
2 | N#Cc1c(-c2ccccc2)nc(SCc2ccc(C(=O)NC(=S)Nc3c(Cl)cccc3Cl)cc2)[nH]c1=O | 70 | 81 | 84 | – | – | – | – | – | –
3 | Cc1ccccc1NC(=S)NC(=O)c1ccc(CSc2nc(-c3ccc(-c4ccccc4)cc3)c(C#N)c(=O)[nH]2)cc1 | 67 | 73 | 78 | – | – | – | – | – | –
4 | N#Cc1c(-c2ccccc2)nc(SCc2ccc(C(=O)NC(=S)Nc3ccc(Cl)cc3)cc2)[nH]c1=O | 64 | 79 | 71 | 39.4 (≈ 74.1 µM) | 50 | – | – | – | –
5 | N#Cc1c(-c2ccc(-c3ccccc3)cc2)nc(SCc2ccc(C(=O)NC(=S)Nc3c(Cl)cccc3Cl)cc2)[nH]c1=O | 80 | 71 | 69 | – | – | 50 (≈ 77.8 µM) | 50 (≈ 77.8 µM) | 50 (≈ 77.8 µM) | –
6 | N#Cc1c(-c2ccccc2Cl)nc(SCc2ccc(C(=O)NC(=S)Nc3c(Cl)cccc3Cl)cc2)[nH]c1=O | 79 | 89 | 92 | 16 (≈ 26.6 µM) | – | 50 (≈ 83.2 µM) | 25 (≈ 41.6 µM) | 50 (≈ 83.2 µM) | 50
7 | N#Cc1c(-c2ccc(Cl)cc2Cl)nc(SCc2ccc(C(=O)NC(=S)Nc3ccc(Cl)cc3)cc2)[nH]c1=O | 69 | 74 | 74 | – | – | – | – | – | –
8 | Cc1ccccc1NC(=S)NC(=O)c1ccc(CSc2nc(-c3ccccc3)c(C#N)c(=O)[nH]2)cc1 | 63 | 69 | 78 | – | – | – | – | – | –
9 | N#Cc1c(-c2ccc(-c3ccccc3)cc2)nc(SCc2ccc(CSc3nc(-c4ccc(-c5ccccc5)cc4)c(C#N)c(=O)[nH]3)cc2)[nH]c1=O | 79 | 87 | 44 | 20.8 (≈ 29.2 µM) | – | 50 (≈ 70.1 µM) | 12.5 (≈ 17.5 µM) | 25 (≈ 35.1 µM) | –
10 | N#Cc1c(-c2ccc(-c3ccccc3)cc2)nc(SCc2ccc(C(=O)NC(=S)Nc3ccccc3)cc2)[nH]c1=O | 83 | 62 | 72 | – | – | 50 (≈ 87.2 µM) | 50 (≈ 87.2 µM) | 50 (≈ 87.2 µM) | –
11 | Cc1ccccc1NC(=S)NC(=O)c1ccc(CSc2nc(-c3ccc(Cl)cc3Cl)c(C#N)c(=O)[nH]2)cc1 | 66 | 55 | 54 | – | – | – | – | – | –
12 | Cc1ccccc1NC(=S)NC(=O)c1ccc(CSc2nc(-c3c(Cl)cccc3Cl)c(C#N)c(=O)[nH]2)cc1 | 64 | 50 | 62 | – | – | – | – | – | –
13 | N#Cc1c(-c2ccc(Cl)cc2)nc(SCc2ccc(C(=O)NC(=S)Nc3ccc(Cl)cc3)cc2)[nH]c1=O | 62 | 61 | 91 | – | – | – | – | – | –
14 | N#Cc1c(-c2ccc(Cl)cc2)nc(SCc2ccc(C(=O)NC(=S)Nc3c(Cl)cccc3Cl)cc2)[nH]c1=O | 81 | 81 | 80 | 38.8 (≈ 64.6 µM) | 50 | 50 (≈ 83.2 µM) | 25 (≈ 41.6 µM) | 50 (≈ 83.2 µM) | –
15 | Cc1ccccc1NC(=S)NC(=O)c1ccc(CSc2nc(-c3ccccc3Cl)c(C#N)c(=O)[nH]2)cc1 | 71 | 78 | 82 | – | – | – | – | – | –
16 | N#Cc1c(-c2ccccc2Cl)nc(SCc2ccc(C(=O)NC(=S)Nc3ccc(Cl)cc3)cc2)[nH]c1=O | 68 | 63 | 68 | – | – | – | – | – | –
17 | Cc1ccccc1NC(=S)NC(=O)c1ccc(CSc2nc(-c3ccc(Cl)cc3)c(C#N)c(=O)[nH]2)cc1 | 58 | 61 | 78 | – | – | – | – | – | –
18 | CCn1cc(C(=O)O)c(=O)c2cc(F)c(N3CCNCC3)cc21 [NORFLOXACIN] | 78 | 84 | 89 | – | – | 25 (≈ 78.3 µM) | 25 (≈ 78.3 µM) | 25 (≈ 78.3 µM) | –
19 | N#Cc1c(-c2c(Cl)cccc2Cl)nc(SCc2ccc(C(=O)NC(=S)Nc3ccc(Cl)cc3)cc2)[nH]c1=O | 68 | 49 | 63 | – | – | – | – | – | –
20 | N#Cc1c(-c2ccc(Cl)cc2Cl)nc(SCc2ccc(C(=O)NC(=S)Nc3c(Cl)cccc3Cl)cc2)[nH]c1=O | 68 | 72 | 69 | – | – | 50 (≈ 78.7 µM) | 50 (≈ 78.7 µM) | 50 (≈ 78.7 µM) | –
21 | N#Cc1c(-c2ccccc2Cl)nc(SCc2ccc(C(=O)NC(=S)Nc3ccccc3)cc2)[nH]c1=O | 80 | 67 | 87 | 17.9 (≈ 33.6 µM) | – | 25 (≈ 47 µM) | 25 (≈ 47 µM) | 50 (≈ 94 µM) | 50
22 | N#Cc1c(-c2ccc(Cl)cc2Cl)nc(SCc2ccc(C(=O)NC(=S)Nc3ccccc3)cc2)[nH]c1=O | 79 | 56 | 66 | – | – | – | – | – | –
23 | N#Cc1c(-c2c(Cl)cccc2Cl)nc(SCc2ccc(C(=O)NC(=S)Nc3ccccc3)cc2)[nH]c1=O | 71 | 71 | 55 | – | – | – | – | – | –
24 | N#Cc1c(-c2ccc(-c3ccccc3)cc2)nc(SCc2ccc(C(=O)NC(=S)Nc3ccc(Cl)cc3)cc2)[nH]c1=O | 76 | 75 | 56 | – | – | – | – | – | –
25 | N#Cc1c(-c2c(Cl)cccc2Cl)nc(SCc2ccc(C(=O)NC(=S)Nc3c(Cl)cccc3Cl)cc2)[nH]c1=O | 79 | 53 | 73 | – | – | 50 (≈ 78.7 µM) | 50 (≈ 78.7 µM) | 50 (≈ 78.7 µM) | –
26 | N#Cc1c(-c2ccc(Cl)cc2)nc(SCc2ccc(C(=O)NC(=S)Nc3ccccc3)cc2)[nH]c1=O | 67 | 70 | 63 | – | – | – | – | – | –
